Measured values as given in patent US4293489A, “Derivatives of A-30912A nucleus” (Eli Lilly and Company, priority 1980, dated 1981).
Values after ≈ are worked out from the molar mass of the structure shown. Like-named read-outs stand apart in the source and are kept apart here. Starred links: 1 amine or outer side, 2 acyl side, 3 side chain; linkers in the order of their positions; H or OH if unused. Positions of bridges follow the written chain, without caps; N, C: chain ends. Non-standard residues stand in square brackets, D forms with d. Residues, ends and D or L forms follow the SMILES beside them. *: point of attachment. Orn(4R-OH,5R-OH) = O=C([C@H](C[C@@H](O)[C@@H](O)N[*:3])N[*:1])[*:2]; hTyr(3S-OH,4S-OH) = N[C@H](C(=O)O)[C@H](O)[C@@H](O)c1ccc(O)cc1; Pro(3S-OH,4S-Me) = C[C@H]1CN[C@H](C(=O)O)[C@H]1O; Benzoyl(4-octyloxy) = CCCCCCCCOc1ccc(C(=O)*)cc1; X2 = CCCCCCCCCCCCCCS(=O)(=O)c1ccc(C(=O)*)cc1; X5 = CCCCCCCCCCCCS(=O)(=O)c1ccc(C(=O)*)cc1; X4 = CCCCCCCCCCS(=O)(=O)c1ccc(C(=O)*)cc1; X3 = CCCCCCCCCCCCCCSc1ccc(C(=O)*)cc1; X1 = CCCCCCCCCCCCSc1ccc(C(=O)*)cc1; Hyp = O=C(O)[C@@H]1C[C@@H](O)CN1; X8 = CCCCCCCCCOc1ccc(C(=O)*)cc1

Legend:
Candida albicans A-26 [1] = experiment: Agar dilution method, MIC; assay type: cell-based
Experimental: (§1) Tables 10 and 11 give the results of the testing in vitro of the compounds of Examples 3 and 4 by agar-plate disc-diffusion methods. In Table 10 activity is measured by the size (diameter in mm) of the observed zone of inhibition of the microorganism produced by the test compound. In Table 11, activity is measured by the minimal inhibitory concentration (MIC) of the substance (μg/disc) required to inhibit growth of the test organism. Table 12 gives the results of the testing in vitro of the p-(n-octyloxy)benzoyl derivative of A30912A nucleus [Formula III, R^1 is p-(n-octyloxy)benzoyl] against five strains of Candida albicans by the agar dilution method. In Table 12 activity is measured by the minimal inhibitory concentration (MIC) of the substance (μg/ml) required to inhibit the test organism.

Candida albicans SBH16 = experiment: Agar dilution method, MIC; assay type: cell-based
Experimental: as §1

Candida albicans SBH28 = experiment: Agar dilution method, MIC; assay type: cell-based
Experimental: as §1

Candida albicans SBH31 = experiment: Agar dilution method, MIC; assay type: cell-based
Experimental: as §1

Candida albicans SBH29 = experiment: Agar dilution method, MIC; assay type: cell-based
Experimental: as §1

pathogenic fungi = experiment: Antifungal activity, standard biological test procedures; assay type: cell-based; conditions: cyclic nucleus lacking the linoleoyl side chain
Text: The compounds of Formula III inhibit the growth of pathogenic fungi as evidenced by standard biological test procedures. The compounds are useful, therefore, for controlling the growth of fungi on environmental surfaces (as an antiseptic) or in treating infections caused by fungi. […] Thus, the compounds are particularly useful in treating infections caused by strains of C. albicans (candidosis). The compounds of Formula III have also shown activity in vitro in agar-plate disc diffusion tests against Trichophyton mentagrophytes, a dermatophytic organism. Activity has also been found in in vitro agar-plate disc-diffusion tests against Saccharomyces pastorianus, and Neurospora crassa. Certain compounds (as shown in Example 6, Table 9) give significant blood levels upon oral administration in mice.

[2] = test system: Saccharomyces pastoranius X-52; experiment: Agar plate disc diffusion test, zone of inhibition; assay type: cell-based, Saccharomyces pastorianus
Experimental: as §1
(§2) ^(a) Compounds were tested as suspension in methanol. The compounds
(§3) were tested at a concentration of 1 mg/ml. by dipping a 7mm disc into the
(§4) suspension and placing it on the agar surface. Incubation: 24-48 hours at
(§5) *Measurable zone of inhibition with regrowth of organism around disc.

Candida albicans A-26 [3] = experiment: Agar plate disc diffusion test, zone of inhibition; assay type: cell-based; conditions: 1 mg/ml suspension in methanol, 7mm disc; 24-48 hours at 25-37° C.
Experimental: as §1, §2, §3, §4, §5

Neurospora crassa 846 = experiment: Agar plate disc diffusion test, zone of inhibition; assay type: cell-based
Experimental: as §1, §2, §3, §4, §5

[4] = test system: Trichophyton mentagraphytes A-23; experiment: Agar plate disc diffusion test, zone of inhibition; assay type: cell-based, Trichophyton mentagrophytes
Experimental: as §1, §2, §3, §4, §5

[5] = Blood levels after oral administration in mice; conditions: mouse, 416 mg/kg
Experimental: In this test, mice are gavaged with a dose of 416 mg/kg of the test compound suspended in 33% PEG 400-water. At time intervals, blood samples are taken from the orbital sinus and are assayed for antibiotic activity as follows: A 7 mm. disc containing 20 μl of whole blood is placed on agar seeded with Aspergillus montevidensis A35137. After 40 hours incubation at 30° C. zones of inhibition from the blood samples are compared to a standard obtained from the test compound, and the amount of compound in the blood sample is calculated.

[6] = Toxicity on intravenous administration to a dog; assay type: in vivo; conditions: 100 mg/kg per day for five days
[7] = X52, 1 mg/ml suspension in methanol, 7mm disc, 24-48 hours at 25-37° C., read-out: Size of Zone of Inhibition
[8] = Neurospora crassa, 846, 1 mg/ml suspension in methanol, 7mm disc, 24-48 hours at 25-37° C., read-out: Size of Zone of Inhibition
[9] = A23, 1 mg/ml suspension in methanol, 7mm disc, 24-48 hours at 25-37° C., read-out: Size of Zone of Inhibition

Compound: CCCCCCCCCOc1ccc(C(=O)N[C@H]2C[C@@H](O)[C@@H](O)NC(=O)[C@@H]3[C@@H](O)[C@@H](C)CN3C(=O)[C@H]([C@@H](C)O)NC(=O)[C@H]([C@H](O)[C@@H](O)c3ccc(O)cc3)NC(=O)[C@@H]3C[C@@H](O)CN3C(=O)[C@H]([C@@H](C)O)NC2=O)cc1 (X8-[Orn(4R-OH,5R-OH)]T[Hyp][hTyr(3S-OH,4S-OH)]T[Pro(3S-OH,4S-Me)]; lactam 1-C)
- MIC (Candida albicans A-26 [1]; A26): 0.312 µg/mL (≈ 0.299 µM)
- MIC (Candida albicans SBH16; SBH16): 0.312 µg/mL (≈ 0.299 µM)
- MIC (Candida albicans SBH28; SBH28): 0.312 µg/mL (≈ 0.299 µM)
- MIC (Candida albicans SBH31; SBH31): 0.312 µg/mL (≈ 0.299 µM)
- MIC (Candida albicans SBH29; SBH29): 0.312 µg/mL (≈ 0.299 µM)

Compound: C[C@@H](O)[C@@H]1NC(=O)[C@H]([C@H](O)[C@@H](O)c2ccc(O)cc2)NC(=O)[C@@H]2C[C@@H](O)CN2C(=O)[C@H]([C@@H](C)O)NC(=O)[C@@H](N)C[C@@H](O)[C@@H](O)NC(=O)[C@@H]2[C@@H](O)[C@@H](C)CN2C1=O [A-30912A nucleus] (H-[Orn(4R-OH,5R-OH)]T[Hyp][hTyr(3S-OH,4S-OH)]T[Pro(3S-OH,4S-Me)]; lactam 1-C)
- antifungal activity (pathogenic fungi): substantially devoid of antifungal activity

Compound: CCCCCCCCOc1ccc(C(=O)N[C@H]2C[C@@H](O)[C@@H](O)NC(=O)[C@@H]3[C@@H](O)[C@@H](C)CN3C(=O)[C@H]([C@@H](C)O)NC(=O)[C@H]([C@H](O)[C@@H](O)c3ccc(O)cc3)NC(=O)[C@@H]3C[C@@H](O)CN3C(=O)[C@H]([C@@H](C)O)NC2=O)cc1 [drawing 108] ({Benzoyl(4-octyloxy)}-[Orn(4R-OH,5R-OH)]T[Hyp][hTyr(3S-OH,4S-OH)]T[Pro(3S-OH,4S-Me)]; lactam 1-C)
- zone of inhibition at 1000 µg/mL [2, 7]: 18 mm
- Size of Zone of Inhibition (Candida albicans A-26 [3]): 28 mm
- zone of inhibition at 1000 µg/mL (Neurospora crassa 846; Neurospora crassa, 846, read-out: Size of Zone of Inhibition): 23 mm

Compound: CCCCCCCCCCS(=O)(=O)c1ccc(C(=O)N[C@H]2C[C@@H](O)[C@@H](O)NC(=O)[C@@H]3[C@@H](O)[C@@H](C)CN3C(=O)[C@H]([C@@H](C)O)NC(=O)[C@H]([C@H](O)[C@@H](O)c3ccc(O)cc3)NC(=O)[C@@H]3C[C@@H](O)CN3C(=O)[C@H]([C@@H](C)O)NC2=O)cc1 [drawing 112] (X4-[Orn(4R-OH,5R-OH)]T[Hyp][hTyr(3S-OH,4S-OH)]T[Pro(3S-OH,4S-Me)]; lactam 1-C)
- zone of inhibition at 1000 µg/mL [2, 7]: 16 mm
- Size of Zone of Inhibition (Candida albicans A-26 [3]): 55 mm
- zone of inhibition at 1000 µg/mL (Neurospora crassa 846; [8]): 31 mm
- zone of inhibition at 1000 µg/mL [4, 9]: 32 mm

Compound: CCCCCCCCCCCCS(=O)(=O)c1ccc(C(=O)N[C@H]2C[C@@H](O)[C@@H](O)NC(=O)[C@@H]3[C@@H](O)[C@@H](C)CN3C(=O)[C@H]([C@@H](C)O)NC(=O)[C@H]([C@H](O)[C@@H](O)c3ccc(O)cc3)NC(=O)[C@@H]3C[C@@H](O)CN3C(=O)[C@H]([C@@H](C)O)NC2=O)cc1 [drawing 113] (X5-[Orn(4R-OH,5R-OH)]T[Hyp][hTyr(3S-OH,4S-OH)]T[Pro(3S-OH,4S-Me)]; lactam 1-C)
- Size of Zone of Inhibition (Candida albicans A-26 [3]): 48 mm
- zone of inhibition at 1000 µg/mL (Neurospora crassa 846; [8]): 37 mm
- zone of inhibition at 1000 µg/mL [4, 9]: 26 mm

Compound: CCCCCCCCCCCCCCS(=O)(=O)c1ccc(C(=O)N[C@H]2C[C@@H](O)[C@@H](O)NC(=O)[C@@H]3[C@@H](O)[C@@H](C)CN3C(=O)[C@H]([C@@H](C)O)NC(=O)[C@H]([C@H](O)[C@@H](O)c3ccc(O)cc3)NC(=O)[C@@H]3C[C@@H](O)CN3C(=O)[C@H]([C@@H](C)O)NC2=O)cc1 [drawing 114] (X2-[Orn(4R-OH,5R-OH)]T[Hyp][hTyr(3S-OH,4S-OH)]T[Pro(3S-OH,4S-Me)]; lactam 1-C)
- zone of inhibition at 1000 µg/mL ([2]; X52, read-out: Size of Zone of Inhibition): 23 mm
- Size of Zone of Inhibition (Candida albicans A-26 [3]): 30 mm
- zone of inhibition at 1000 µg/mL (Neurospora crassa 846; [8]): 29 mm
- zone of inhibition at 1000 µg/mL ([4]; A23, read-out: Size of Zone of Inhibition): 23 mm

Compound: CCCCCCCCCCCCSc1ccc(C(=O)N[C@H]2C[C@@H](O)[C@@H](O)NC(=O)[C@@H]3[C@@H](O)[C@@H](C)CN3C(=O)[C@H]([C@@H](C)O)NC(=O)[C@H]([C@H](O)[C@@H](O)c3ccc(O)cc3)NC(=O)[C@@H]3C[C@@H](O)CN3C(=O)[C@H]([C@@H](C)O)NC2=O)cc1 [drawing 149] (X1-[Orn(4R-OH,5R-OH)]T[Hyp][hTyr(3S-OH,4S-OH)]T[Pro(3S-OH,4S-Me)]; lactam 1-C)
- MIC (Candida albicans A-26 [1]; A26): 0.625 µg/mL (≈ 0.567 µM)
- MIC (Candida albicans SBH16; SBH16): 0.625 µg/mL (≈ 0.567 µM)
- MIC (Candida albicans SBH28; SBH28): 0.625 µg/mL (≈ 0.567 µM)
- MIC (Candida albicans SBH31; SBH31): 0.625 µg/mL (≈ 0.567 µM)
- MIC (Candida albicans SBH29; SBH29): 0.625 µg/mL (≈ 0.567 µM)

Compound: CCCCCCCCCCCCCCSc1ccc(C(=O)N[C@H]2C[C@@H](O)[C@@H](O)NC(=O)[C@@H]3[C@@H](O)[C@@H](C)CN3C(=O)[C@H]([C@@H](C)O)NC(=O)[C@H]([C@H](O)[C@@H](O)c3ccc(O)cc3)NC(=O)[C@@H]3C[C@@H](O)CN3C(=O)[C@H]([C@@H](C)O)NC2=O)cc1 [drawing 150] (X3-[Orn(4R-OH,5R-OH)]T[Hyp][hTyr(3S-OH,4S-OH)]T[Pro(3S-OH,4S-Me)]; lactam 1-C)
- MIC (Candida albicans A-26 [1]; A26, strain A-26, agar dilution, read-out: MIC): 2.5 µg/mL (≈ 2.21 µM)
- MIC (Candida albicans SBH16; strain SBH16, agar dilution, read-out: MIC): 2.5 µg/mL (≈ 2.21 µM)
- MIC (Candida albicans SBH28; strain SBH28, agar dilution, read-out: MIC): 2.5 µg/mL (≈ 2.21 µM)
- MIC (Candida albicans SBH31; strain SBH31, agar dilution, read-out: MIC): 2.5 µg/mL (≈ 2.21 µM)
- MIC (Candida albicans SBH29; strain SBH29, agar dilution, read-out: MIC): 2.5 µg/mL (≈ 2.21 µM)

Compound: CCCCCCCCOc1ccc(C(=O)N[C@H]2C[C@@H](O)[C@@H](O)NC(=O)[C@@H]3[C@@H](O)[C@@H](C)CN3C(=O)[C@H]([C@@H](C)O)NC(=O)[C@H]([C@H](O)[C@@H](O)c3ccc(O)cc3)NC(=O)[C@@H]3C[C@@H](O)CN3C(=O)[C@H]([C@@H](C)O)NC2=O)cc1 [drawing 181] ({Benzoyl(4-octyloxy)}-[Orn(4R-OH,5R-OH)]T[Hyp][hTyr(3S-OH,4S-OH)]T[Pro(3S-OH,4S-Me)]; lactam 1-C)
- Cmax [5]: 23000 ng/mL

Compound: CCCCCCCCOc1ccc(C(=O)N[C@H]2C[C@@H](O)[C@@H](O)NC(=O)[C@@H]3[C@@H](O)[C@@H](C)CN3C(=O)[C@H]([C@@H](C)O)NC(=O)[C@H]([C@H](O)[C@@H](O)c3ccc(O)cc3)NC(=O)[C@@H]3C[C@@H](O)CN3C(=O)[C@H]([C@@H](C)O)NC2=O)cc1 [p-(n-octyloxy)benzoyl derivative of A-30912A nucleus] ({Benzoyl(4-octyloxy)}-[Orn(4R-OH,5R-OH)]T[Hyp][hTyr(3S-OH,4S-OH)]T[Pro(3S-OH,4S-Me)]; lactam 1-C)
- SGPT levels [6]: increased SGPT levels were observed
- outward signs of toxicity [6]: no outward signs of toxicity
